Measurements published in US20230104487A1, “11-(4-CHLOROPHENYL)-4-(2,3-DIHYDRO-1H-INDOLE-1-CARBONYL)-3,11-DIMETHYL-5,10,DIOXATRICYCLO[7.4.0.0,2,6,]TRIDECA-1,3,6,8-TETRAEN-13-ONE AND DERIVATIVES AS DESTABILIZER OF CRY1 FOR THE TREATMENT OF CIRCADIAN RHYTHM ASSOCIATED DISEASES AND DISORDERS” (KOC UNIVERSITESI, priority 2019, published 2023).

Key:
[1] = test system: Cry1−/−/Cry2−/− mouse embryonic fibroblasts; experiment: Circadian reporter assay in CRY double knockout MEFs (mPer2-dLuc); format: cell-based; details: DKO-MEF transfected with mPer2-luc
Protocol: Luminescence values were recorded at 32° C. for each 30 minutes with 15 seconds integration time via Synergy H1 luminometer for a week. For LumiCycle, 400×10^3 U2-OS Bmal1-dLuc or NIH3T3 mPer2-dLuc cells were seeded to 35 mm plates and then procedure given above was followed with a change in the last step. Plates were sealed with vacuum grease and placed to LumiCycle. Each plate was recorded continuously every 10 minutes for 70 seconds at 37° C. via photomultiplier tubes. Period and amplitude data were obtained from LumiCycle Analysis software. To detect the effect of FORMULA I in the absence of CRYs, Cry1^−/−/Cry2^−/− mouse embryonic fibroblasts (CRYDKO MEFs) transiently transfected with pGL3-Per2-Luc (luciferase reporter) were used. 3×10^5 CRYDKO cells were seeded in 35 mm clear plates. Next day, cells were transfected with 4000 ng pGL3-Per2-Luc via Fugene6 transfection reagent according to the manufacturer's instruction. In short, 3:1 ratio of Fugene6 in μl against transfected DNA amount in μg was kept in transfections. 72 h after transfection cells were synchronized with DXM for two hours. Then, medium was changed with lumicycle medium having DMSO or molecule, sealed with vacuum grease, and placed to LumiCycle.

[2] = test system: C57BL/6J mice; experiment: Single dose toxicity study in mice; format: in vivo
Protocol: Male and female C57BL/6J mice, 8-12 weeks of age, weighing 18-24 g were used in the in vivo studies with FORMULA I. Mice were obtained from Kog University Animal Research Facility (KUTTAM) and experiments were conducted in accordance with the guidelines approved for animal experimental procedures by the Koc University Animal Research Local Ethics Committee (No: 2015/13).
Mice were housed in polystyrene cages up to four animals in the room equipped with temperature control (21±2° C.) and humidity (55±5%). Mice were housed under 12 h of light (L) in alternation with 12 h of darkness (D) (LD 12:12) prior to any intervention and the same lighting regimen continued to the end of the experiment. Water and food were provided ad libitum throughout the experiments. FORMULA I or vehicle were administered intraperitoneally to mice at the same time every day (three hours after light onset). […]
The dose levels to be used in the single dose toxicity study were selected according to the OECD Guidelines (Guidelines for the testing of chemicals, 2002). […] Body weight was measured every day as an index of general toxicity. […] The body temperatures of the mice were recorded by rectal homeothermic monitor (Harvard Apparatus, US) for 5 days following FORMULA I injection. […] Food intake and water consumption were also monitored for 14 days. […] Hematological parameters were analyzed in blood samples.

[3] = Brain tissue levels in mice; format: in vivo, mouse; details: 100 mg/kg i.p.
Protocol: C57BL/6J female mice (n=4 per each time point) were treated with 100 mg/kg single dose of FORMULA I intraperitoneally. Blood samples were collected 0, 0.5, 1, 2, 4, 8, 12 and 24 h after administration of FORMULA I by cardiac puncture under isoflurane anesthesia. Plasma was obtained by centrifugation from heparinized tubes and stored at −80° C. until analysis. Brain tissues were quickly removed and stored at −80° C. for further processing. For assessment of the brain exposure of FORMULA I, levels in this tissue were only determined at 2nd (n=2) and 4th (n=2) hours according to maximum concentrations of the molecule in plasma.
Liquid chromatography coupled to tandem mass spectrometry (LC-MS/MS) was used to obtain high mass accuracy data of the analytes in plasma samples for the determination of FORMULA I and Internal standard (IS) Loratadine. […] The optimized conditions of the electrospray ionization (ESI) source were as follows: gas temperature, 300° C.; gas flow, 10 L/min; nebulizer pressure, 25 psi; capillary voltage, 5500 V. ESI in the positive ion mode provides the best results for FORMULA I. For MS-MS detection, the protonated molecules were selected as precursor ions and the most abundant fragment ions obtained at collision energy of 22-20 eV were monitored as the product ions for FORMULA I and IS. […]

SMILES: Cc1c(C(=O)N2CCc3ccccc32)oc2ccc3c(c12)C(=O)CC(C)(c1ccc(Cl)cc1)O3 (centres unmarked) [FORMULA I, 11-(4-chlorophenyl)-4-(2,3-dihydro-1H-indole-1-carbonyl)-3,11-dimethyl-5,10,dioxatricyclo[7.4.0.0,2,6,]trideca-1,3,6,8-tetraen-13-one]
- effect on rhythm in absence of CRYs [1]: had no effect
- tolerability ([2]; single doses of 5 and 50 mg/kg): well-tolerated
- toxic effect in pharmacological studies with mice ([2]; summary statement): no toxic effect
- blood-brain barrier crossing [3]: crosses the blood-brain barrier
- detection in brain tissue ([3]; 2nd and 4th hours): detected in the brain tissue
